For data set [1] the following is noted: doses approved for motor symptoms of PD; 535 PD patients; cited from earlier work.
For data set [2] the following is noted: for MTD-1 (Pramipexole alone): Period 1. The protocol:
The starting dose of pramipexole was 0.5 mg and the dose was increased daily by 0.5 mg increments.
When a subject reached FID-1 on pramipexole alone, the subject was washed out for at least 5 days, and then entered Period 2 of the study during which the subject received single daily oral doses of pramipexole starting at 0.5 mg and titrated upward by 0.5 mg increments, together with oral aprepitant (80 mg) until subjects again reached an intolerable dose defined as above. The FID on oral pramipexole plus oral aprepitant was referred to as FID-2.
If a subject reached FID-2 during Period 2 at the same or lower dose than FID-1, and providing the investigator judged there were no safety issues and the subject was consenting, the subject received the same dose of pramipexole as the FID-2 dose together with a higher dose of oral aprepitant (120 mg) on the next day and the protocol specified that said subject should continue with the remainder of the dose titration with the higher dose of oral aprepitant (120 mg) until they reach the intolerable dose (FID2+). All other provisions of the protocol remained unchanged. Assessments were the same as those planned for the dose escalation day.
In addition, a laboratory panel was taken at screening and at the end of the study.

Data set [3] deals with dopaminergic neurons in a mouse PD model. The settings on record: cited from earlier work.
The target in data set [4] is alpha-synuclein in human neuroblastoma SH-SY5Y cells (Homo sapiens, UniProt P37840). The settings on record: cited from earlier work.
Data set [5] deals with human wild-type alpha-synuclein (Homo sapiens, UniProt P37840). The settings on record: in vitro; by H2O2 plus cytochrome c; cited from earlier work.
The target in data set [6] is synuclein (Homo sapiens, UniProt P37840). The settings on record: in vitro; cited from earlier work.
For data set [7] the following is noted: 5 mg/day of pramipexole, cited from earlier work.

Like-named read-outs stand apart in the source and are kept apart here.

As for `CCCN[C@H]1CCc2nc(N)sc2C1` [Pramipexole, (S)-6-propylamino-4,5,6,7-tetrahydro-1,3-benzothiazole-2-amine], the “Neuroprotective (disease modifying) activity” value in data set [1] is “failed to evidence neuroprotective (i.e., disease modifying) activity”. Besides, the “MTD-1 (Pramipexole alone)” value in data set [2] (Subject 1001) is listed as 2.0 mg; in data set [2] (Subject 1006, NA, not tolerated at 0.5 mg), “NA (not tolerated”; in data set [2] (Subject 1007), 4.0 mg; in data set [2] (Subject 1008), 1.0 mg. The “Reaching of FID-1” value in data set [2] (human, in vivo) was “All subjects reached FID-1”. The Dose limiting toxicity entry in data set [2] (in vivo) is reported as “gastro-intestinal adverse events”. The “Toxic effects of rotenone on dopaminergic neurons” value in data set [3] (mouse PD model) is given as “inhibits the toxic effects of rotenone”. Further, the Immunoreactivity for alpha-synuclein result in data set [3] (rotenone mouse PD model) was “reducing immunoreactivity for alpha-synuclein”. Also, the Aggregation of alpha-synuclein result in data set [4] was “inhibit the aggregation of alpha-synuclein”. In addition, in data set [5], the “Oligomerization of human wild-type alpha-synuclein” value is given as “decreases the in vitro oligomerization”. In data set [6], the Synuclein oligomer formation entry was “diminishes synuclein oligomer formation”. In addition, the Nausea in data set [7] is listed as 76 % of patients. The Vomiting in data set [7] is 39 % of patients. In addition, the “Patients not able to complete the study” value in data set [7] (presumably because of intolerable GI adverse events) is listed as 36 % of patients.

The values are drawn from patent US11160809B2, “NK1-antagonist combination and method for treating synucleinopathies” (priority 2017, dated 2021).
